Data as given in ChEMBL document CHEMBL1201862, “PubChem BioAssay data set” (2004).
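Grown in 96-well plates, cells were treated for 48 hours with each compound at five concentrations. Insufficient inhibition: endpoint recorded as highest concentration tested. GI50 = concentration required for 50% inhibition of growth.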 The source made the active and inactive calls. No stated cut-off is given here; in the data, active = GI50 up to about 1.1 µM and inactive = higher.

Legend:
Assay in all cases: NCI-60 cell line screen, 48 h
NCI-H522 = test system: NCI-H522
HOP-92 = test system: HOP-92
MDA-N = test system: MDA-N
KM12 = test system: KM12
PC-3 = test system: PC-3
OVCAR-5 = test system: OVCAR-5
SNB-75 = test system: SNB-75
TK-10 = test system: TK-10
OVCAR-3 = test system: OVCAR-3
UACC-257 = test system: UACC-257
RPMI-8226 = test system: RPMI-8226
SR = test system: SR
SK-MEL-5 = test system: SK-MEL-5
M14 = test system: M14
SF-539 = test system: SF-539
MCF7 = test system: MCF7
T47D = test system: T47D
SF-268 = test system: SF-268
SK-OV-3 = test system: SK-OV-3
HCC 2998 = test system: HCC 2998

Structure (SMILES)	GI50 (NCI-H522)	GI50 (HOP-92)	GI50 (MDA-N)	GI50 (KM12)	GI50 (PC-3)	GI50 (OVCAR-5)	GI50 (SNB-75)	GI50 (TK-10)	GI50 (OVCAR-3)	GI50 (UACC-257)	GI50 (RPMI-8226)	GI50 (SR)	GI50 (SK-MEL-5)	GI50 (M14)	GI50 (SF-539)	GI50 (MCF7)	GI50 (T47D)	GI50 (SF-268)	GI50 (SK-OV-3)	GI50 (HCC 2998)
COc1nc2cccc(C(O)c3ccccc3)c2nc1-c1ccccc1 (stereo unspecified)	8.95 µM (inactive)	6.92 µM (inactive)	1.55 µM (inactive)	6.04 µM (inactive)	4.46 µM (inactive)	11 µM (inactive)	9.12 µM (inactive)	22.3 µM (inactive)	3.91 µM (inactive)	5.89 µM (inactive)	2.94 µM (inactive)	1.75 µM (inactive)	3.56 µM (inactive)	4.39 µM (inactive)	2.88 µM (inactive)	4.47 µM (inactive)	8.57 µM (inactive)	9.06 µM (inactive)	–	–
CC(C)(C)[Si](C)(C)OCC1OC(n2cnc3c(N)ncnc32)CC1OS(C)(=O)=O (stereo unspecified)	–	0.506 µM (active)	> 100 µM (inactive)	> 100 µM (inactive)	> 100 µM (inactive)	89.1 µM (inactive)	–	42 µM (inactive)	27.4 µM (inactive)	> 100 µM (inactive)	> 100 µM (inactive)	> 100 µM (inactive)	–	21.7 µM (inactive)	–	> 100 µM (inactive)	> 100 µM (inactive)	–	> 100 µM (inactive)	–
C=CCC(O[Si](C)(C)C(C)(C)C)c1cc(O[Si](C)(C)C(C)(C)C)ccc1OC (stereo unspecified)	–	35.4 µM (inactive)	–	> 100 µM (inactive)	–	> 100 µM (inactive)	> 55.6 µM (inactive)	–	> 54.6 µM (inactive)	> 79.4 µM (inactive)	> 100 µM (inactive)	–	> 61.1 µM (inactive)	–	99.3 µM (inactive)	51.1 µM (inactive)	–	> 85.9 µM (inactive)	> 62.4 µM (inactive)	> 100 µM (inactive)
COc1ccc(OC)c(SC(CC(=O)c2ccccc2)c2ccccc2)c1 (stereo unspecified)	14.6 µM (inactive)	33.7 µM (inactive)	–	4.06 µM (inactive)	14.8 µM (inactive)	18.4 µM (inactive)	18.4 µM (inactive)	17.2 µM (inactive)	4.69 µM (inactive)	15.9 µM (inactive)	–	7.6 µM (inactive)	13.8 µM (inactive)	16.7 µM (inactive)	4.32 µM (inactive)	3.14 µM (inactive)	10.1 µM (inactive)	19.1 µM (inactive)	20 µM (inactive)	17.5 µM (inactive)
CN1CCN(c2cc(-c3cc4ccccc4o3)oc(=O)c2C#N)CC1	–	–	–	99.3 µM (inactive)	–	50.1 µM (inactive)	80.4 µM (inactive)	59.4 µM (inactive)	–	> 100 µM (inactive)	75.5 µM (inactive)	36.8 µM (inactive)	72.8 µM (inactive)	> 100 µM (inactive)	98.4 µM (inactive)	–	–	51.2 µM (inactive)	–	> 100 µM (inactive)
COc1cc(CCCOC2OC(COC3OCC(O)C(O)C3O)C(O)C(O)C2O)cc2cc(-c3ccc4c(c3)OCO4)oc12 (stereo unspecified)	> 175 µM (inactive)	> 175 µM (inactive)	–	> 175 µM (inactive)	–	> 175 µM (inactive)	> 175 µM (inactive)	–	> 175 µM (inactive)	> 175 µM (inactive)	> 175 µM (inactive)	–	> 175 µM (inactive)	–	> 175 µM (inactive)	> 175 µM (inactive)	–	> 175 µM (inactive)	> 175 µM (inactive)	> 98.4 µM (inactive)
Cc1ccc2cc3cccc(C(=O)NCCN(C)C)c3nc2c1	–	0.376 µM (active)	–	1.54 µM (inactive)	–	1.47 µM (inactive)	1.33 µM (inactive)	–	1.36 µM (inactive)	0.946 µM (active)	0.807 µM (active)	–	1.32 µM (inactive)	–	1.38 µM (inactive)	0.681 µM (active)	–	1.08 µM (active)	1.57 µM (inactive)	1.49 µM (inactive)
Oc1ccc(NCn2c(=S)sc3ccccc32)cc1	17.7 µM (inactive)	33 µM (inactive)	–	> 100 µM (inactive)	> 100 µM (inactive)	> 100 µM (inactive)	54.8 µM (inactive)	> 100 µM (inactive)	97.9 µM (inactive)	> 100 µM (inactive)	26.2 µM (inactive)	–	> 100 µM (inactive)	> 100 µM (inactive)	> 100 µM (inactive)	92.9 µM (inactive)	34.4 µM (inactive)	> 100 µM (inactive)	> 100 µM (inactive)	> 100 µM (inactive)
O=C(OCc1ccccc1)C(Cc1ccccc1)N(Cc1ccccc1)Cc1ccccc1 (stereo unspecified)	25.7 µM (inactive)	> 100 µM (inactive)	–	> 100 µM (inactive)	–	> 100 µM (inactive)	16.5 µM (inactive)	> 100 µM (inactive)	84.7 µM (inactive)	9.42 µM (inactive)	37.1 µM (inactive)	9.51 µM (inactive)	5.94 µM (inactive)	> 100 µM (inactive)	> 100 µM (inactive)	–	–	> 100 µM (inactive)	> 100 µM (inactive)	35.7 µM (inactive)
